Laboratory results as given in patent publication US20230407243A1, “GENETIC PLATFORM TO INVESTIGATE THE FUNCTIONS OF BACTERIAL DRUG EFFLUX PUMPS” (priority 2022, published 2023).
Read-outs that look alike come from different tables or passages of the source.

Legend:
Assay type in all cases: cell-based, Escherichia coli
[1] = system: EKO-35-Pore; assay: MIC susceptibility profiling, porinated strain; details: for Fold changes of MICs: EKO-35-Pore compared to EKO-35-Pore (reference); for MIC: Escherichia coli
Procedure, shortened: (§1)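 E. coli strains carrying a genomically integrated constitutive fhuA ΔC/Δ4L pore were grown 18 h in LB at 37 °C, then diluted 1/2000 in MHB II from OD600 ~1.0. Compounds were tested in duplicate, 2-fold serial titration, for 18 h at 37 °C with shaking. MIC came from OD600 with the pre-incubation background subtracted.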

[2] = system: wild-type E. coli K-12 str. BW25113; assay: microbe, parasite or virus in culture; details: technical duplicate; for MIC: Escherichia coli, BW25113
Procedure, shortened: (§2)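 Overnight LB cultures were grown at 37 °C with aeration, then washed into PBS, pH 7.4, to OD600 ~1.0. A 1/2000 dilution in MHB II was exposed to compound dilution series for 18 h at 37 °C. The MIC was taken from corrected OD600.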

[3] = system: E. coli ΔtolC; assay: microbe, parasite or virus in culture; details: for Minimum inhibitory concentration (MIC), ΔtolC: Table 10, without pore
Procedure, shortened: as §2

[4] = system: E. coli EKO-35; assay: microbe, parasite or virus in culture; details: for Fold change of MICs: EKO-35 compared to EKO-35 (reference); for MIC: Escherichia coli, EKO35
Procedure, shortened: as §2

[5] = system: wild-type (WT) K-12-Pore; assay: microbe, parasite or virus in culture; details: technical duplicate; for MIC: Escherichia coli
Procedure, shortened: as §1

[6] = system: ΔtolC-Pore; assay: microbe, parasite or virus in culture; details: for Minimum inhibitory concentration (MIC), Pore ΔtolC: Table 10, with pore
Procedure, shortened: as §1

[7] = system: EKO-35 araC::acrEF; assay: MIC susceptibility profiling, efflux platform; details: for Fold change of MICs: EKO-35 araC::acrEF compared to EKO-35
Procedure, shortened: as §2

[8] = system: EKO-35 araC::mdtBC; assay: MIC susceptibility profiling, efflux platform; details: for Fold change of MICs: EKO-35 araC::mdtBC compared to EKO-35
Procedure, shortened: as §2

[9] = system: EKO-35 araC::acrBD408A; assay: MIC susceptibility profiling, efflux platform; details: for Fold change of MICs: EKO-35 araC::acrBD408A compared to EKO-35
Procedure, shortened: as §2

[10] = system: EKO-35 araC::mexCD Pore; assay: MIC susceptibility profiling, porinated efflux platform; details: for Fold changes of MICs: EKO-35 araC::mexCD Pore compared to EKO-35-Pore
Procedure, shortened: as §1

[11] = system: EKO-35 araC::acrBD408A Pore; assay: as above; details: for Fold changes of MICs: EKO-35 araC::acrBD408A Pore compared to EKO-35-Pore
Procedure, shortened: as §1

[12] = system: EKO-35 araC::macAB Pore; assay: as above; details: for Fold changes of MICs: EKO-35 araC::macAB Pore compared to EKO-35-Pore
Procedure, shortened: as §1

[13] = system: EKO-35 araC::acrB Pore; assay: as above; details: for Fold changes of MICs: EKO-35 araC::acr-B Pore compared to EKO-35-Pore
Procedure, shortened: as §1

[14] = system: EKO-35 araC::acrEF Pore; assay: as above; details: for Fold changes of MICs: EKO-35 araC::acrEF Pore compared to EKO-35-Pore
Procedure, shortened: as §1

[15] = system: EKO-35 araC::acrD Pore; assay: as above; details: for Fold changes of MICs: EKO-35 araC::acrD Pore compared to EKO-35-Pore
Procedure, shortened: as §1

[16] = system: EKO-35 araC::mdtEF Pore; assay: as above; details: for Fold changes of MICs: EKO-35 araC::mdtEF Pore compared to EKO-35-Pore
Procedure, shortened: as §1

[17] = system: EKO-35 araC::emrKY Pore; assay: as above; details: for Fold changes of MICs: EKO-35 araC::emrKY Pore compared to EKO-35-Pore
Procedure, shortened: as §1

[18] = system: EKO-35 araC::mdtBC Pore; assay: as above; details: for Fold changes of MICs: EKO-35 araC::mdtBC Pore compared to EKO-35-Pore
Procedure, shortened: as §1

[19] = system: EKO-35 araC::emrAB Pore; assay: as above; details: for Fold changes of MICs: EKO-35 araC::emrAB Pore compared to EKO-35-Pore
Procedure, shortened: as §1

[20] = Table 14A, porinated, technical duplicate
[21] = Table 13A, non-porinated, technical duplicate
[22] = Table 13B, non-porinated, technical duplicate

CC[C@H]1OC(=O)[C@H](C)[C@@H](O[C@H]2C[C@@](C)(OC)[C@@H](O)[C@H](C)O2)[C@H](C)[C@@H](O[C@@H]2O[C@H](C)C[C@H](N(C)C)[C@H]2O)[C@](C)(O)C[C@@H](C)CN(C)[C@H](C)[C@@H](O)[C@]1(C)O [azithromycin]
Fold changes of MICs [1]: 1 fold | MIC ([1]; Table 10, with pore, technical duplicate, read-out: Minimum inhibitory concentration (MIC), Pore EKO-35): 0.049 µg/mL | MIC ([1]; Table 14A, porinated, technical duplicate, read-out: Minimum inhibitory concentration, EKO-35-Pore): 0.049 µg/mL | MIC ([2]; Table 10, without pore, read-out: Minimum inhibitory concentration (MIC), K-12): 6.25 µg/mL | MIC ([2]; Table 13A, non-porinated, read-out: Minimum Inhibitory Concentration, K-12): 6.25 µg/mL | MIC ([3]; Escherichia coli, 18 h, read-out: Minimum Inhibitory Concentration, ΔtolC): 0.781 µg/mL | Minimum inhibitory concentration (MIC), ΔtolC ([3]; technical duplicate): 0.781 µg/mL | Fold change of MICs [4]: 1 fold | MIC ([4]; Table 10, without pore, technical duplicate, read-out: Minimum inhibitory concentration (MIC), EKO-35): 0.781 µg/mL | MIC ([4]; Table 13A, non-porinated, technical duplicate, read-out: Minimum Inhibitory Concentration, EKO-35): 0.781 µg/mL | MIC ([5]; Table 10, with pore, read-out: Minimum inhibitory concentration (MIC), Pore K-12): 0.391 µg/mL | MIC ([5]; Table 14A, porinated, read-out: Minimum inhibitory concentration, K-12 (WT)-Pore): 0.391 µg/mL | MIC ([6]; Escherichia coli, 18 h, read-out: Minimum inhibitory concentration, ΔtolC-Pore): 0.049 µg/mL | Minimum inhibitory concentration (MIC), Pore ΔtolC ([6]; technical duplicate): 0.049 µg/mL | Fold change of MICs [7]: 8 fold | MIC ([7]; Escherichia coli, Table 13A, non-porinated, technical duplicate, read-out: Minimum Inhibitory Concentration, EKO-35 araC::acrEF): 6.25 µg/mL | Fold change of MICs [8]: 1 fold | MIC ([8]; Escherichia coli, Table 13B, non-porinated, technical duplicate, read-out: Minimum Inhibitory Concentration, EKO-35 araC::mdtBC): 0.781 µg/mL | Fold change of MICs [9]: 1 fold | MIC ([9]; Escherichia coli, Table 13B, non-porinated, technical duplicate, read-out: Minimum Inhibitory Concentration, EKO-35 araC::acrBD408A): 0.781 µg/mL | Fold changes of MICs [10]: 2 fold | MIC ([10]; Escherichia coli, EKO-35 araC::mexCD Pore, technical duplicate, read-out: Minimum inhibitory concentration): 0.098 µg/mL | efflux pump-mediated resistance vs EKO-35-Pore ([10]; MexCD, OM compromised): no longer associated MexCD with resistance | Fold changes of MICs [11]: 2 fold | MIC ([11]; Escherichia coli, EKO-35 araC::acrBD408A Pore, technical duplicate, read-out: Minimum inhibitory concentration): 0.098 µg/mL | Fold changes of MICs [12]: 2 fold | MIC ([12]; Escherichia coli, EKO-35 araC::macAB Pore, technical duplicate, read-out: Minimum inhibitory concentration): 0.098 µg/mL | fold increase of MIC over EKO-35 ([12]; MacAB with a porinated OM): 2 fold | Fold changes of MICs [13]: 4 fold | MIC ([13]; Escherichia coli, Table 14A, porinated, technical duplicate, read-out: Minimum inhibitory concentration, EKO-35 araC::acrB Pore): 0.195 µg/mL | Fold changes of MICs [14]: 4 fold | MIC ([14]; Escherichia coli, Table 14A, porinated, technical duplicate, read-out: Minimum inhibitory concentration, EKO-35 araC::acrEF Pore): 0.195 µg/mL | Fold changes of MICs [15]: 1 fold | MIC ([15]; Escherichia coli, Table 14A, porinated, technical duplicate, read-out: Minimum inhibitory concentration, EKO-35 araC::acrD Pore): 0.024 µg/mL | Fold changes of MICs [16]: 4 fold | MIC ([16]; Escherichia coli, Table 14A, porinated, technical duplicate, read-out: Minimum inhibitory concentration, EKO-35 araC::mdtEF Pore): 0.195 µg/mL | Fold changes of MICs [17]: 1 fold | MIC ([17]; Escherichia coli, EKO-35 araC::emrKY Pore, technical duplicate, read-out: Minimum inhibitory concentration): 0.024 µg/mL | Fold changes of MICs [18]: 1 fold | MIC ([18]; Escherichia coli, EKO-35 araC::mdtBC Pore, technical duplicate, read-out: Minimum inhibitory concentration): 0.049 µg/mL | Fold changes of MICs [19]: 1 fold | MIC ([19]; Escherichia coli, EKO-35 araC::emrAB Pore, technical duplicate, read-out: Minimum inhibitory concentration): 0.049 µg/mL

O=C(Nc1ccccc1)Nc1ccc(Br)c(C(F)(F)F)c1 [compound 6]
Fold changes of MICs [1]: 1 fold | Minimum inhibitory concentration (MIC), Pore EKO-35 ([1]; Table 10, with pore, technical duplicate): 320 µg/mL | Minimum inhibitory concentration, EKO-35-Pore [1, 20]: 320 µg/mL | Minimum inhibitory concentration (MIC), K-12 ([2]; Table 10, without pore): 320 µg/mL | Minimum Inhibitory Concentration, K-12 ([2]; Table 13A, non-porinated): 320 µg/mL | Minimum inhibitory concentration (MIC), ΔtolC ([3]; technical duplicate): 0.625 µg/mL | Minimum Inhibitory Concentration, ΔtolC [3, 21]: 0.625 µg/mL | Fold change of MICs [4]: 1 fold | Minimum inhibitory concentration (MIC), EKO-35 ([4]; Table 10, without pore, technical duplicate): 320 µg/mL | Minimum Inhibitory Concentration, EKO-35 [4, 21]: 320 µg/mL | Minimum inhibitory concentration (MIC), Pore K-12 ([5]; Table 10, with pore): 320 µg/mL | Minimum inhibitory concentration, K-12 (WT)-Pore ([5]; Table 14A, porinated): 320 µg/mL | Minimum inhibitory concentration (MIC), Pore ΔtolC ([6]; technical duplicate): 0.625 µg/mL | Minimum inhibitory concentration, ΔtolC-Pore [6, 20]: 0.625 µg/mL | Fold change of MICs [7]: 1 fold | Minimum Inhibitory Concentration, EKO-35 araC::acrEF [7, 21]: 320 µg/mL | Fold change of MICs [8]: 1 fold | Minimum Inhibitory Concentration, EKO-35 araC::mdtBC [8, 22]: 320 µg/mL | Fold change of MICs [9]: 1 fold | Minimum Inhibitory Concentration, EKO-35 araC::acrBD408A [9, 22]: 320 µg/mL | Fold changes of MICs [10]: 1 fold | Minimum inhibitory concentration ([10]; EKO-35 araC::mexCD Pore, technical duplicate): 320 µg/mL | Fold changes of MICs [11]: 1 fold | Minimum inhibitory concentration ([11]; EKO-35 araC::acrBD408A Pore, technical duplicate): 320 µg/mL | Fold changes of MICs [12]: 1 fold | Minimum inhibitory concentration ([12]; EKO-35 araC::macAB Pore, technical duplicate): 320 µg/mL | Fold changes of MICs [13]: 1 fold | Minimum inhibitory concentration, EKO-35 araC::acrB Pore [13, 20]: 320 µg/mL | Fold changes of MICs [14]: 1 fold | Minimum inhibitory concentration, EKO-35 araC::acrEF Pore [14, 20]: 320 µg/mL | Fold changes of MICs [15]: 1 fold | Minimum inhibitory concentration, EKO-35 araC::acrD Pore [15, 20]: 320 µg/mL | Fold changes of MICs [16]: 1 fold | Minimum inhibitory concentration, EKO-35 araC::mdtEF Pore [16, 20]: 320 µg/mL | Fold changes of MICs [17]: 1 fold | Minimum inhibitory concentration ([17]; EKO-35 araC::emrKY Pore, technical duplicate): 320 µg/mL | Fold changes of MICs [18]: 1 fold | Minimum inhibitory concentration ([18]; EKO-35 araC::mdtBC Pore, technical duplicate): 320 µg/mL | Fold changes of MICs [19]: 1 fold | Minimum inhibitory concentration ([19]; EKO-35 araC::emrAB Pore, technical duplicate): 320 µg/mL
